From patent US20090306133A1, “New Acetyl Coenzyme A Carboxylase (ACC) Inhibitors And Uses In Treatments Of Obesity And Diabetes Mellitus - 087” (ASTRAZENECA AB, priority 2007, published 2009) come the findings set out here.

Assay [1] addresses Human recombinant Acetyl-CoA Carboxylase 2 (ACC2) (Homo sapiens, UniProt O00763). The assay can be described thus: Assay X: ACC2 inhibition, inorganic phosphate (malachite green). The assay is classed as biochemical. To be noted: Assay X: 37° C., 1.5 h, 5 min pre-incubation. In a few lines:
(§1)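 Human recombinant enzyme pre-incubated 5 min with compound before substrate addition; reaction run 1.5 h, then inorganic phosphate detected by malachite green absorbance at 660 nm. Ten concentrations tested in triplicate; apparent IC50 from four-parameter curve fit.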

For assay [2], the target named is Human recombinant Acetyl-CoA Carboxylase 1 (ACC1) (Homo sapiens, UniProt Q13085). The assay can be described thus: Assay X: ACC1 inhibition, inorganic phosphate (malachite green). The format is biochemical. The settings on record: Assay X: 37° C., 1.5 h, 5 min pre-incubation. In a few lines: as §1

The structures appear in SMILES notation.

Sequence of Human recombinant Acetyl-CoA Carboxylase 2 (ACC2) (O00763 whole entry): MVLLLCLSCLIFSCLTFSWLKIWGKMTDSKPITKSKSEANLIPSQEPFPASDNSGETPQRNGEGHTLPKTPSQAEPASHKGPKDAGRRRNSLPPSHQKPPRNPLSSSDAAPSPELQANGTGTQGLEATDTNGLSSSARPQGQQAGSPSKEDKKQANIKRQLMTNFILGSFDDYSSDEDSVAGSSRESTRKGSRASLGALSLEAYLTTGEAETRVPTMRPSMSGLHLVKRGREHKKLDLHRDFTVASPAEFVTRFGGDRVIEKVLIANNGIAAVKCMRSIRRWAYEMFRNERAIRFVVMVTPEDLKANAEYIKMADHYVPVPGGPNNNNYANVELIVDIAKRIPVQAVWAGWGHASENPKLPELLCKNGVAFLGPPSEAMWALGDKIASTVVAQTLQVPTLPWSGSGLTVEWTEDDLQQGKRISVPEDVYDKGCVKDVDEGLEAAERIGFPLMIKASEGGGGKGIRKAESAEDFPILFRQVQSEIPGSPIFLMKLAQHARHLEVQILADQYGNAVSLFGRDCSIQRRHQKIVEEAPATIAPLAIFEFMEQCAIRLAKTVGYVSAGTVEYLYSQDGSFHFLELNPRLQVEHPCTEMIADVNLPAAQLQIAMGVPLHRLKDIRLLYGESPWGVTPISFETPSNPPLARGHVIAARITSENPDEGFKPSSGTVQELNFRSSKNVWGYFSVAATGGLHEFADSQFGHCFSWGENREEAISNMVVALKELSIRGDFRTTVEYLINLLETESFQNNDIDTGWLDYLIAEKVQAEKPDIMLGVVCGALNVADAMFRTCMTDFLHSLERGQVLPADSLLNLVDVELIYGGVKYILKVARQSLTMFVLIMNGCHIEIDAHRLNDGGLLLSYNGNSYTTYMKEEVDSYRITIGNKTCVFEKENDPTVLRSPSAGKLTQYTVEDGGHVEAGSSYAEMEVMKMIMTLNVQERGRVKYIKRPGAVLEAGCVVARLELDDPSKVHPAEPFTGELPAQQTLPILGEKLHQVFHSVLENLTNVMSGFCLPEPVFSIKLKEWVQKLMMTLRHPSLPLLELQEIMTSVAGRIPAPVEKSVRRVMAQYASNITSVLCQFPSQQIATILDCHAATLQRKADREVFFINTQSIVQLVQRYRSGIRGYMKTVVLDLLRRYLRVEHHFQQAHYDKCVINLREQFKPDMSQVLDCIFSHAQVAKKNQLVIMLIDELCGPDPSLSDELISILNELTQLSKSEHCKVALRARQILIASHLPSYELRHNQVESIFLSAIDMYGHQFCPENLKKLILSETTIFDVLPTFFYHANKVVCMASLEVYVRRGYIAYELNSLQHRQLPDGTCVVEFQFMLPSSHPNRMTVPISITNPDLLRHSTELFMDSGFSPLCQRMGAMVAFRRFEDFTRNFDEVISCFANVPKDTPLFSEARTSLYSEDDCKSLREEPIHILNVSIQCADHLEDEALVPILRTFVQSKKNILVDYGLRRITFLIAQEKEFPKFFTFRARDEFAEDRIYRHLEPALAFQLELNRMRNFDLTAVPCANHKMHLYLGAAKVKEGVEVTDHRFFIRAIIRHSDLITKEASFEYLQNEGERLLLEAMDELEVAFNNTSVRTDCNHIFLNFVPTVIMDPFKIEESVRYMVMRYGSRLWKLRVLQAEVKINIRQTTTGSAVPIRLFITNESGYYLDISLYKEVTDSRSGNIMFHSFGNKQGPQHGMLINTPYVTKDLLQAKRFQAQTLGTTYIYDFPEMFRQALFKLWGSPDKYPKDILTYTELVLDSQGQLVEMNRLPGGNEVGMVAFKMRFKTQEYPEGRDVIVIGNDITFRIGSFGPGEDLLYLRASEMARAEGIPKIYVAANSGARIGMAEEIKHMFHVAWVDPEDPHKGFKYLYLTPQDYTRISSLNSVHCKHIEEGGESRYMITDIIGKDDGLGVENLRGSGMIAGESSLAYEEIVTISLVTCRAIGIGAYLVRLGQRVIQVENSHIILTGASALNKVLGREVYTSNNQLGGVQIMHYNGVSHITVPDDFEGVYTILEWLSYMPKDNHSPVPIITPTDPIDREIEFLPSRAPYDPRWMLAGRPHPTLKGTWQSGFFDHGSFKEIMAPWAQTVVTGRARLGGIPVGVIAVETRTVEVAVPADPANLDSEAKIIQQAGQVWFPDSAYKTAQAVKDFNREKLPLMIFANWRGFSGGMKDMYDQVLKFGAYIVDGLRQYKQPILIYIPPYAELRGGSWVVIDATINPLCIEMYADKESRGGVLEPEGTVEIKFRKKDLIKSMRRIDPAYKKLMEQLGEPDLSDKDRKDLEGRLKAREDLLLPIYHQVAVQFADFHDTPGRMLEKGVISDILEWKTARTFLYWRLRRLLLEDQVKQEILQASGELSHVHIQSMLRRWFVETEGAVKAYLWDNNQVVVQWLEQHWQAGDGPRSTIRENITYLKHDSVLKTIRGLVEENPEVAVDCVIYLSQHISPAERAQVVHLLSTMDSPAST

By IC50 is commonly meant the point on the concentration scale where inhibition reaches its midpoint. Turning to `CN(C)CCC1CCN(c2cc(C(=O)NC[C@H]3CC[C@H](CNC(=O)OC4CCOCC4)CC3)c3ccccc3n2)CC1` [Example 224, Tetrahydro-2H-pyran-4-yl {[trans-4-({[(2-{4-[2-(dimethylamino)ethyl]piperidin-1-yl}quinolin-4-yl)carbonyl]amino}methyl)cyclohexyl]methyl}carbamate], the figures for the 50% inhibitory concentration (IC50) in assay [1] and in assay [2] were 0.68 µM and 6.31 µM, respectively.
The matching figures for `CN1CCC(C2CCN(c3cc(C(=O)NC[C@H]4CC[C@H](CNC(=O)OC(C)(C)C)CC4)c4ccccc4n3)CC2)CC1` [Example 225, tert-Butyl ({trans-4-[({[2-(1′-methyl-4,4′-bipiperidin-1-yl)quinolin-4-yl]carbonyl}amino)methyl]cyclohexyl}methyl)carbamate]: 0.11 µM and 0.95 µM.
On the same counts, the results for `COCCNCCC1CCN(c2cc(C(=O)NC[C@H]3CC[C@H](CNC(=O)OC(C)(C)C)CC3)c3ccccc3n2)CC1` [Example 226, tert-Butyl ({trans-4-[({[2-(4-{2-[(2-methoxyethyl)amino]ethyl}piperidin-1-yl)quinolin-4-yl]carbonyl}amino)methyl]cyclohexyl}methyl)carbamate] are 0.2 µM and 1.63 µM.
On the same counts, the results for `COCCN(C)CCC1CCN(c2cc(C(=O)NC[C@H]3CC[C@H](CNC(=O)OC(C)(C)C)CC3)c3ccccc3n2)CC1` [Example 227, tert-Butyl({trans-4-[({[2-(4-{2-[(2-methoxyethyl)(methyl)-amino]ethyl}piperidin-1-yl)quinolin-4-yl]carbonyl}amino)-methyl]cyclohexyl}-methyl)carbamate] are 0.23 µM and 1.63 µM.
As for `CC(C)(C)OC(=O)NC[C@H]1CC[C@H](CNC(=O)c2cc(N3CCC(CCNC4CCOCC4)CC3)nc3ccccc23)CC1` [Example 228, tert-Butyl{[trans-4-({[(2-{4-[2-(tetrahydro-2H-pyran-4-ylamino)ethyl]piperidin-1-yl}quinolin-4-yl)carbonyl]amino}-methyl)cyclohexyl]-methyl}carbamate], the figures for the IC50 in assay [1] and in assay [2] were 0.21 µM and 1.52 µM, respectively.
On the same counts, the results for `COC1CN(CCC2CCN(c3cc(C(=O)NC[C@H]4CC[C@H](CNC(=O)OC(C)(C)C)CC4)c4ccccc4n3)CC2)C1` [Example 229, tert-Butyl{[trans-4-({[(2-{4-[2-(3-methoxyazetidin-1-yl)ethyl]piperidin-1-yl}quinolin-4-yl)carbonyl]amino}-methyl)cyclohexyl]-methyl}carbamate] are 0.11 µM and 0.92 µM.
Regarding `CC(C)(C)OC(=O)NC[C@H]1CC[C@H](CNC(=O)c2cc(N3CCC(CCN4CCCC4)CC3)nc3ccccc23)CC1` [Example 231, tert-Butyl[(trans-4-{[({2-[4-(2-pyrrolidin-1-ylethyl)piperidin-1-yl]quinolin-4-yl}carbonyl)amino]-methyl}cyclohexyl)-methyl]carbamate], the IC50 stood at 0.08 µM in assay [1] and 0.7 µM in assay [2].
The matching figures for `CN(CCO)CCC1CCN(c2cc(C(=O)NC[C@H]3CC[C@H](CNC(=O)OC(C)(C)C)CC3)c3ccccc3n2)CC1` [Example 232, tert-Butyl({trans-4-[({[2-(4-{2-[(2-hydroxyethyl)(methyl)-amino]ethyl}piperidin-1-yl)quinolin-4-yl]carbonyl}amino)-methyl]cyclohexyl}-methyl)carbamate]: 0.14 µM and 1.29 µM.
On the same counts, the results for `CC(C)(C)OC(=O)NC[C@H]1CC[C@H](CNC(=O)c2cc(N3CCC(CCN4CC(O)C4)CC3)nc3ccccc23)CC1` [Example 233, tert-Butyl {[trans-4-({[(2-{4-[2-(3-hydroxyazetidin-1-yl)ethyl]piperidin-1-yl}quinolin-4-yl)carbonyl]amino}methyl)cyclohexyl]methyl}carbamate] are 0.1 µM and 1.02 µM.
On the same counts, the results for `CC(C)(C)OC(=O)NC[C@H]1CC[C@H](CNC(=O)c2cc(N3CCC(CCN4CCC4)CC3)nc3ccccc23)CC1` [Example 234, tert-Butyl [(trans-4-{[({2-[4-(2-azetidin-1-ylethyl)piperidin-1-yl]quinolin-4-yl}carbonyl)amino]methyl}cyclohexyl)methyl]carbamate] are 0.11 µM and 0.95 µM.
Turning to `CC(C)(C)OC(=O)NC[C@H]1CC[C@H](CNC(=O)c2cc(N3CCC(CCN4CC(C(=O)O)C4)CC3)nc3ccccc23)CC1` [Example 235, 1-{2-[1-(4-{[(trans-4-{[(tert-Butoxycarbonyl)amino]methyl}cyclohexyl)methyl]-carbamoyl}quinolin-2-yl)piperidin-4-yl]ethyl}azetidine-3-carboxylic Acid], the IC50 is 0.23 µM in assay [1] and 1.84 µM in assay [2].
On the same counts, the results for `CC(C)(C)OC(=O)NC[C@H]1CC[C@H](CNC(=O)c2cc(N3CCC(CCN4CC(N)C4)CC3)nc3ccccc23)CC1` [Example 236, tert-Butyl {[trans-4-({[(2-{4-[2-(3-aminoazetidin-1-yl)ethyl]piperidin-1-yl}quinolin-4-yl)carbonyl]amino}methyl)cyclohexyl]methyl}carbamate] are 0.08 µM and 0.55 µM.
In the case of `CN(C)CC(F)CC1CCN(c2cc(C(=O)NC[C@H]3CC[C@H](CNC(=O)OC(C)(C)C)CC3)c3ccccc3n2)CC1` (stereo partly drawn) [Example 237, tert-Butyl {[trans-4-({[(2-{4-[3-(dimethylamino)-2-fluoropropyl]piperidin-1-yl}quinolin-4-yl)carbonyl]amino}methyl)cyclohexyl]methyl}carbamate], the IC50 in assay [1] was found to be 0.14 µM; in assay [2] it was 1.09 µM.
The matching figures for `CN(C)CCOC1CN(c2cc(C(=O)NC[C@H]3CC[C@H](CNC(=O)OC(C)(C)C)CC3)c3ccccc3n2)C1` [Example 238, tert-Butyl {[trans-4-({[(2-{3-[2-(dimethylamino)ethoxy]azetidin-1-yl}quinolin-4-yl)carbonyl]amino}methyl)cyclohexyl]methyl}carbamate]: 0.63 µM and 4.45 µM.
On the same counts, the results for `CC(C)(C)OC(=O)NC[C@H]1CC[C@H](CNC(=O)c2cc(-c3cn[nH]c3)nc(-c3cccc(CN)c3)c2)CC1` [Example 239, tert-Butyl [(trans-4-{[({2-[3-(aminomethyl)phenyl]-6-(1H-pyrazol-4-yl)pyridin-4-yl}carbonyl)amino]methyl}cyclohexyl)methyl]carbamate] are 0.35 µM and 0.74 µM.
The matching figures for `CC(C)(C)OC(=O)NC[C@H]1CC[C@H](CNC(=O)c2cc(-c3cccnc3)nc(-c3cccc(CN)c3)c2)CC1` [Example 240, tert-Butyl [(trans-4-{[({6-[3-(aminomethyl)phenyl]-2,3′-bipyridin-4-yl}carbonyl)amino]methyl}cyclohexyl)methyl]carbamate]: 0.36 µM and 1.08 µM.
In the case of `CC(C)(C)OC(=O)NC[C@H]1CC[C@H](CNC(=O)c2cc(-c3ccc(N)nc3)nc(-c3cccc(CN)c3)c2)CC1` [Example 241, tert-Butyl [(trans-4-{[({6′-amino-6-[3-(aminomethyl)phenyl]-2,3′-bipyridin-4-yl}carbonyl)amino]methyl}cyclohexyl)methyl]carbamate], the IC50 in assay [1] was determined as 0.11 µM; in assay [2], 0.26 µM.
